Patent publication US12145920B2, “Lanthionine c-like protein 2 ligands, cells prepared therewith, and therapies using same” (NImmune Biopharma, Inc., priority 2019, dated 2024)

Legend:
CD4+ T cells = assay: Immune effects in CD4+ splenocytes, flow cytometry (wild type); format: cell-based, C57BL/6 mice; conditions: 0.1 micromolar, 48 h, vs vehicle, FIG. 4B
Source text: Cell culture. Spleens were excised from C57BL/6 mice and assessed in wild-type and LANCL2 deficient states. Spleens were crushed between the frosted ends of microscope slides and filtered to provide a cellular suspension. Red blood cells were lysed through hypotonic lysis. Remaining cells were washed and filtered. CD4+ T cells were enriched within the suspension using magnetic sorting based negative selection. Cells were collected and plated within 96 well plates coated with anti-CD3 and cultured in the presence of BT-63 at 0, 0.1, 1 and 10 micromolar or BT-104A, BT-104B, or BT-104C at 0.1 micromolar for 48 h. During the last 6 h of culture, cells were stimulated with phorbol 12-myristate-13-acetate (PMA) and ionomycin.
Immunological analysis. Cells were collected from 96 well plates and stained with a cocktail of antibodies for immunophenotyping by flow cytometry. Culture supernatant was collected and assayed for cytokine concentrations by cytometric bead array. Data was captured on a BD FACS Celesta and analyzed using FacsDiva.

[1] = tested on: C57BL/6 mice with CCl4-induced steatohepatitis; assay: CCl4 model of nonalcoholic steatohepatitis; format: in vivo; conditions: oral 20 mg/kg, after 2 weeks of treatment
Protocol: WD-induced model. C57BL/6 mice were administered bi-weekly intraperitoneal injections of 0.5 μL/g CCl4 to induce steatohepatitis for 4 weeks. Mice were treated daily, in a therapeutic manner after 2 weeks of injections. Treatment with BT-104-B (20 mg/kg) or vehicle control occurred by oral gavage. Dosage was calculated based off mean body weights.
Analysis. Livers were excised and weighed. Sections of livers were excised and stored in buffered formalin for Sirius red staining or snap frozen for assessment of fibrosis. Severity of fibrosis was assessed by scoring of Sirius red stained liver by microscopic examination.

NZB/W F1 mice = assay: NZB/W F1 genetic mouse model of SLE (BT-104-B); format: in vivo; conditions: spleens, 12 weeks daily oral 20 mg/kg vs vehicle
Protocol: NZB/W F1 model. Twenty-four-week-old, female NZB/W F1 mice were randomized into vehicle or BT-104-B treated arms based on baseline urine protein levels. BT-104-B was administered daily at 20 mg/kg for 12 weeks. Mice were weighed on a weekly basis to update dosage formulation. Dosage was calculated based off mean body weights.
(§1) Immunological analysis. Spleens were excised, crushed and filtered to provide a cellular suspension. Red blood cells were lysed. Cells were labeled with mixtures of extracellular (CD45, CD3, CD4, CD8, CD25) and intracellular (IL21, IL17, FOXP3) antibodies in a sequential live staining in 96-well plates in preparation for flow cytometry. Data was captured on a BD FACS Celesta and analyzed using FACSDiva.

[2] = tested on: C57B1/6 mice immunized with chicken collagen; assay: Collagen induced model of arthritis; format: in vivo; conditions: spleens, 4 weeks daily oral 20 mg/kg vs vehicle
Protocol: Models. Six-week-old C57B1/6 mice were immunized with 200 μg of chicken collagen emulsified in complete Freund's adjuvant by intradermal injections at the base of the tail. Mice were treated with 20 mg/kg of BT-104-B or vehicle, daily for four weeks.
as §1, with “excised from mice. Tissues were” for “excised,”, “CD11b, CD11c)” for “CD25)”, “(IFNγ,” for “(IL21,”, “TNF)” for “FOXP3)”

[3] = mice, oral dose of 10 mg/kg, comparison value; cited from earlier work

Row | Compound | TNFa+ CD4+ T cells (CD4+ T cells) | proportions of IFNγ+ CD4+ T cells (CD4+ T cells) | fibrotic scoring ([1]; Sirius red) | liver weights [1] | proportion of CD25+ FOXP3+ CD4+ T cells (NZB/W F1 mice) | proportion of IL21+ CD4+ T cells (NZB/W F1 mice) | proportion of IL-17+ CD4+ T cells (NZB/W F1 mice) | proportion of IFNγ+ CD4+ T cells [2] | proportion of IL-17+ CD4+ T cells [2] | proportion of TNF+ CD11b+ CD11c+ myeloid cells [2] | maximum plasma concentration [3] [ng/mL]
1 | CC(C)(C(=O)c1ccccc1)N1CCN(C(=O)c2cccc(-c3nc4ccccc4[nH]3)n2)CC1 [BT-104-A] | significantly decreasing | significantly decrease |  |  |  |  |  |  |  |  | 
2 | O=C(CN1C(=O)CN(C(=O)c2cccc(-c3nc4ccccc4[nH]3)n2)CC1=O)c1ccccc1 [BT-104-B, 4-(6-(1H-benzo[d]imidazol-2-yl)picolinoyl)-1-(2-oxo-2-phenylethyl)piperazine-2,6-dione] | significantly decreasing | significantly decrease | reduced | reduced | significantly increasing | significantly reduced | significantly reduced | significantly reduced | significantly reduced | significantly reduced | 
3 | O=C(c1cccc(-c2nc3ccccc3[nH]2)n1)N1CCN(C(=O)c2cccc(-c3nc4ccccc4[nH]3)n2)CC1 [BT-11, N,N-Bis(benzimidazolylpicolinoyl)piperazine] |  |  |  |  |  |  |  |  |  |  | 4.9
